Columns and labels:
[1] = target: T1, rat follicle stimulating hormone receptor (rFSHR) (Rattus norvegicus, UniProt P20395); experiment: Intracellular cAMP measurement (HTRF) assay, antagonism of EC70 of hFSH; type: cell-based; details: HEK293 cells expressing rFSHR, 1 ng/ml hFSH (EC70), read-out: Class (IC50 to antagonise an EC70 of FSH receptors agonist such as hFSH)
T1 construct: expressed in transfected cells
T1 sequence (P20395 18-692): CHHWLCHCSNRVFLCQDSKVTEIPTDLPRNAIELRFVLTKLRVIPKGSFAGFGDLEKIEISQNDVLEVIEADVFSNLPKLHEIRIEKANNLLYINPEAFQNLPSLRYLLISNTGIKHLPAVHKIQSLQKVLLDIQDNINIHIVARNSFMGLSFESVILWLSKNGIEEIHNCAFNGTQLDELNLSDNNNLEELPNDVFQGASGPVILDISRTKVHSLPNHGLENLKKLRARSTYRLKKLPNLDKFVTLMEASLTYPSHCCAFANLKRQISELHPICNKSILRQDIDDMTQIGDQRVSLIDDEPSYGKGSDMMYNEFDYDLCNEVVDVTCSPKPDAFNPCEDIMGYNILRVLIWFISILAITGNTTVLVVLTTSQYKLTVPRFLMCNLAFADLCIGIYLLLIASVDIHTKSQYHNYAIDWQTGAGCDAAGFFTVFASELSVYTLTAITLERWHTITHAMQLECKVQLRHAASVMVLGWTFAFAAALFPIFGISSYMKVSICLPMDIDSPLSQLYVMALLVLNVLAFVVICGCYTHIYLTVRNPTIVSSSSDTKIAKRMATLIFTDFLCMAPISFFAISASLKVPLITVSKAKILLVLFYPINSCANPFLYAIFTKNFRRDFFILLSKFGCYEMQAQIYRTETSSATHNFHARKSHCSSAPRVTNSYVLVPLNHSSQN
Excerpt: Intracellular cAMP Measurement Assay
The Intracellular cAMP measurement assay is a functional cell-based assay used to study GPCR function. This method relies on a Time-Resolved Fluorescence (HTRF) assay to measure the cAMP accumulation upon receptor-mediated Gs protein activation in cells expressing recombinant GPCR or in cells from native tissues. In brief, this method is a competitive immunoassay between native cAMP produced by cells and the cAMP labeled with a fluorescent tag. The endogenously produced cAMP competes with exogenous added d2-labelled cAMP for the cAMP binding site on a Eu3+ cryptate labelled anti-cAMP antibody. The d2-labelled cAMP and the Eu^3+ labelled antibody produces a basal fluroresence via HTRF and therefore an intracellular increase in unlabelled cAMP is detected as decrease in this signal. cAMP is one of the most important intracellular mediators. Its concentration in cells can be increased upon binding of many hormones to their receptors. The most studied pathway consists in the release of α-subunit GTP-binding proteins following ligand-receptor interaction, which in turn activates or inhibits the ATP/cAMP conversion function of adenylate cyclase enzyme. cAMP is then involved in many complex regulatory processes such as protein kinase activation or ion channel gating. This method is widely used to study receptor activation of G protein in cells over-expressing GPCRs or in native cells, including FSH receptors expressing cells (Gabriel et al., Assay Drug Dev. Technol., 1, 291-303, 2003).
Transfection and cell culture: The cDNA encoding the rat follicle stimulating hormone receptor (rFSHR), (accession number NM_199237, NCBI Nucleotide database browser) was subcloned into an expression vector containing also the hygromycin resistance gene. Transfection of this vector into HEK293 cells with PolyFect reagent (Qiagen) according to supplier's protocol, and hygromycin treatment allowed selection of antibiotic resistant cells which had integrated stably one or more copies of the plasmid. Positive cellular clones expressing rFSHR were identified in a functional assay measuring cAMP production in cells following stimulation by addition of purified human follicle stimulating hormone (hFSH).
HTRF cAMP assay: On the day of the experiment, cells were detached from the Petri dish and distributed in a low volume, black-walled 384-well plate at a density of 5,000 cells/well in an assay buffer containing 1 mM IBMX to prevent cAMP degradation by cytoplasmic phosphodiesterases. The determination of the cAMP accumulation was performed using an HTRF assay (Trinquet et al., Anal. Biochem., 358, 126-135, 2006). Briefly, cells were incubated for 3 min in the presence of increasing concentrations of negative allosteric modulators (from 1 nM to 60 μM) and then 30 min in the presence of 1 ng/ml of hFSH, an agonist of rat FSH receptor, that has been determined in previous experiments to correspond to the EC70, a concentration that gives 70% of the maximal response of the agonist, and is in accordance with published data (Fox et al., Mol. Endocrin., 15, 378-389, 2001). […] Cells were then lysed by adding the HTRF assay components, the europium cryptate-labeled anti-cAMP antibody, and the XL665-labeled cAMP analog, previously diluted in a HEPES buffer (50 mM, pH 7.0) containing 0.8 M potassium fluoride, 0.2% (w/v) BSA, and 1% (v/v) Triton X-100, a percentage of detergent that ensure complete cell lysis. Assay was then incubated for 1 hr at room temperature, and HTRF signal was measured after excitation at 337 nm, and dual emission at 620 and 665 nm, using a RubyStar fluorimeter (BMG Labtechnologies). Moreover, the fluorescence ratio of an appropriate range of known concentrations of cAMP standards was also included on each assay plate to produce a standard cAMP curve. […]

Row | Structure (SMILES) | melting point [°C] | IC50 [1] [µM]
1 | COc1ccc(C(=O)Nc2ccc(C(C)(C)CNC(=O)c3csc4ccccc34)cc2)cc1OC [Example 116] | 145 to 147 | < 0.15
2 | COc1ccc(C(=O)Nc2ccc(C(C)(C)CNC(=O)Cc3c[nH]c4ccccc34)cc2)cc1OC [Example 126] | 94 to 96 | 0.15 to 0.4
3 | COc1ccc(C(=O)Nc2ccc(C(C)(C)CNC(=O)c3cc4ccccc4n3C)cc2)cc1OC [Example 108] | 176 to 178 | 0.4 to 1
4 | COc1ccc(C(=O)Nc2ccc(C(C)(C)CNC(=O)CCc3ccccc3)cc2)cc1OC [Example 34] | 149 to 151 | 0.15 to 0.4
5 | COc1ccc(C(=O)Nc2ccc(C3(C#N)CC3)cc2)cc1OC [Example 2, N-[4-(1-Cyano-cyclopropyl)-phenyl]-3,4-dimethoxy-benzamide] | 204 to 207 | 
6 | COc1ccc(C(=O)Nc2ccc(C(C)(C)CNC(=O)c3n[nH]c4ccccc34)cc2)cc1OC [Example 87] | 214 to 216 | 0.15 to 0.4
7 | COc1ccc(C(=O)Nc2cccc(C(C)(C)CNC(C)=O)c2)cc1OC [Example 88, N-[3-(2-Acetylamino-1,1-dimethyl-ethyl)-phenyl]-3,4-dimethoxy-benzamide] | 132 to 134 | 
8 | COc1cc(C(C)(C)C#N)ccc1NC(=O)c1ccc(OC)c(OC)c1 [Example 75, N-[4-(Cyano-dimethyl-methyl)-2-methoxy-phenyl]-3,4-dimethoxy-benzamide] | 110 to 112 | 
9 | COc1ccc(C(=O)Nc2ccc(C(C)(C)C#N)c(-c3cccc(Cl)c3)c2)cc1OC [Example 157, N-[3′-Chloro-6-(cyano-dimethyl-methyl)-biphenyl-3-yl]-3,4-dimethoxy-benzamide] | 144 to 146 | 
10 | COc1ccc(C(=O)Nc2ccc(C(C)(C)CNC(=O)c3ccsc3)cc2)cc1OC [Example 72] | 189 to 190 | 0.15 to 0.4
11 | COc1ccc(C(=O)Nc2ccc(C(C)(C)c3noc(COc4ccccc4)n3)cc2)cc1OC [Example 53, 3,4-Dimethoxy-N-{4-[1-methyl-1-(5-phenoxymethyl-[1,2,4]oxadiazol-3-yl)-ethyl]-phenyl}-benzamide] | 165 to 167 | 
12 | COc1ccc(C(=O)Nc2ccc(C(C)(C)CNC(=O)c3cnc4ccccn34)cc2)cc1OC [Example 161, Imidazo[1,2-a]pyridine-3-carboxylic acid {2-[4-(3,4-dimethoxy-benzoylamino)-phenyl]-2-methyl-propyl}-amide] | 181 to 183 | 
13 | COc1ccc(C(=O)Nc2ccc(C(C)(C)C(N)=O)cc2)cc1OC [Example 21, N-[4-(1-Carbamoyl-1-methyl-ethyl)-phenyl]-3,4-dimethoxy-benzamide] | 193 to 195 | 

Other lines, results leading:

Row | melting point [°C] | IC50 [1] [µM] | Structure (SMILES)
14 | 222 to 224 | < 0.15 | COc1ccc(C(=O)Nc2ccc(C(C)(C)CNC(=O)c3nc4ccc(F)cc4[nH]3)cc2)cc1OC [Example 193, 6-Fluoro-1H-benzoimidazole-2-carboxylic acid {2-[4-(3,4-dimethoxy-benzoylamino)-phenyl]-2-methyl-propyl}-amide]
15 | 203 to 206 | < 0.15 | CCc1cc(NC(=O)c2ccc(OC)c(OC)c2)ccc1C(C)(C)CNC(C)=O [Example 200, N-[4-(2-Acetylamino-1,1-dimethyl-ethyl)-3-ethyl-phenyl]-3,4-dimethoxy-benzamide]
16 | 198 to 200 | ≥ 1 | COc1ccc(C(=O)Nc2ccc(C(C)(C)C#N)c(-c3cncnc3)c2)cc1OC [Example 184, N-[4-(Cyano-dimethyl-methyl)-3-pyrimidin-5-yl-phenyl]-3,4-dimethoxy-benzamide]
17 | 234 to 237 | ≥ 1 | COc1ccc(C(=O)Nc2ccc(C(C)(C)CNC(C)=O)c(-c3cccnc3)c2)cc1OC [Example 195, N-[4-(2-Acetylamino-1,1-dimethyl-ethyl)-3-pyridin-3-yl-phenyl]-3,4-dimethoxy-benzamide]
18 | 223 to 226 |  | COc1ccc(C(=O)Nc2ccc(C(C)(C)CNC(=O)c3nc4ccccc4[nH]3)cc2)cc1OC [Example 162, 1H-Benzoimidazole-2-carboxylic acid {2-[4-(3,4-dimethoxy-benzoylamino)-phenyl]-2-methyl-propyl}-amide]
19 | 194 to 196 | ≥ 1 | COc1ccc(C(=O)Nc2ccc(C(C)(C)CNC(=O)c3ccc4nccn4c3)cc2)cc1OC [Example 190]

Reference: patent US20100249123A1, “NOVEL BENZAMIDE DERIVATIVES AS MODULATORS OF THE FOLLICLE STIMULATING HORMONE” (ADDEX PHARMA SA, priority 2007, published 2010)
